In PubChem BioAssay (NCI) one finds TGI data, which are given here for seven compounds.

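Each compound was tested at five concentrations against cells in 96-well plates for 48 hours. At the TGI there is no net growth.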 Where only a bound is given, the exact number is not on record here.

Test in all cases: NCI tumour cell line growth inhibition, 48 h
Assay [1] deals with ACHN renal.
Assay [2] relates to CCRF-CEM leukemia.
Assay [3] deals with HL-60(TB) leukemia.
Assay [4] has as its system HOP-92 NSCLC.
Assay [5] deals with HT29 colon.
In assay [6] the test system is IGROV1 ovarian.
Assay [7] has as its system NCI-H23 lung.
Assay [8] has as its system NCI-H460 lung.
The subject of assay [9] is NCI-H522 lung.
In assay [10] the test system is OVCAR-5 ovarian.
Assay [11] relates to RXF 393 renal.
The subject of assay [12] is SF-295 CNS.
For assay [13], the system named is SF-539 CNS.
Assay [14] deals with SK-MEL-28 melanoma.
Assay [15] relates to SN12C renal.
The test system of assay [16] is T-47D breast.
Assay [17] concerns U251 CNS.
Assay [18] concerns UACC-257 melanoma.
The subject of assay [19] is UO-31 renal.

Regarding `COC(=O)/C=C\c1ccc2c(c1)CC1(C2)Cc2ccc(/C=C/C(=O)OC)cc2C1` (stereo not drawn), the TGI in [1], in assay [2], in assay [3], in assay [4], in assay [5] and in assay [6] was greater than 31.6 µM throughout. The TGI in assay [7] was greater than 31.6 µM; in assay [8], greater than 100 µM; in assay [9], greater than 31.6 µM; in [10], greater than 31.6 µM; in [11], greater than 31.6 µM; in assay [12], greater than 31.6 µM. Moreover, the TGI is greater than 31.6 µM in assay [13]; greater than 100 µM in assay [14]; greater than 31.6 µM in assay [15]; greater than 31.6 µM in [16]; greater than 31.6 µM in assay [17]; greater than 31.6 µM in [18]. The TGI in [19] is greater than 31.6 µM.
For `CCCCCCNC(=O)c1cc(NCc2cc(OC)ccc2OC)ccc1O`, the TGI is greater than 100 µM in assay [1]; 68.6 µM in assay [2]; 46 µM in assay [3]; 31.7 µM in [4]; 85.2 µM in assay [5]; 55 µM in assay [6]. The TGI in assay [7] is 80.6 µM; in [8] it was 84.4 µM; in assay [9], 33.1 µM; in [10], greater than 100 µM; in assay [11], 56.5 µM; in assay [12] it was 30.1 µM. In addition, the TGI was 36.3 µM in assay [13]; greater than 100 µM in [14]; 53.7 µM in [15]; 46.1 µM in [16]; 41.1 µM in assay [17]; 45.7 µM in assay [18]. In assay [19], this compound gave a TGI of 53.1 µM.
For the compound `O=C(NNC(=S)Nc1ccccc1)C12CC3CC(CC(C3)C1)C2`, the TGI is greater than 100 µM in [1]; greater than 53.5 µM in assay [2]; 37.7 µM in assay [3]; 95.8 µM in assay [4]; greater than 100 µM in assay [5]; greater than 100 µM in assay [6]. Besides, the TGI in assay [7], in assay [8], in assay [9], in assay [10], in assay [11] and in assay [12] was greater than 100 µM each time. The TGI in assay [13], in [14], in assay [15], in assay [16], in assay [17] and in [18] was greater than 100 µM each time. Besides, the TGI in [19] is greater than 100 µM.
For `CCOC(=O)Cn1c(=O)c2nc(SC)sc2n(-c2ccc(C)cc2)c1=S`, the TGI was greater than 100 µM in assay [1]; greater than 100 µM in assay [2]; greater than 100 µM in assay [3]; 68.1 µM in [4]; greater than 100 µM in assay [5]; greater than 100 µM in assay [6]. The TGI in assay [7] is greater than 89.5 µM; in [8] it was greater than 100 µM; in [9] it was greater than 100 µM; in assay [10], greater than 100 µM; in assay [11], 61.1 µM; in assay [12] it was greater than 100 µM. In addition, the TGI in assay [13] was greater than 75 µM; in assay [14], greater than 100 µM; in [15], greater than 100 µM; in assay [16], greater than 100 µM; in [17], 71.6 µM; in assay [18], greater than 100 µM. This compound also came in with a TGI in assay [19] greater than 100 µM.
As for `CCOC(=O)CSc1nc(-c2ccc(OC)cc2)c(C#N)c(=O)[nH]1`, the TGI in assay [1], in assay [2], in [3], in assay [4], in assay [5] and in assay [6] was greater than 100 µM each time. The TGI in assay [7], in assay [8], in [9], in assay [10], in [11] and in assay [12] was greater than 100 µM throughout. Also, the TGI in [13], in assay [14], in assay [15], in [16], in assay [17] and in assay [18] was greater than 100 µM in each case. The TGI in [19] was greater than 100 µM.
`CC1(C)C(O)c2ccccc2OC1N1CCN(C2Oc3ccccc3C(O)C2(C)C)CC1` (stereo not drawn): the TGI in assay [1], in [2], in assay [3], in [4], in [5] and in assay [6] was greater than 100 µM in each case. Besides, the TGI in assay [7], in assay [8], in [9], in assay [10], in assay [11] and in assay [12] was greater than 100 µM in each case. For the same compound, the TGI in [13], in assay [14], in assay [15], in assay [16], in [17] and in assay [18] was greater than 100 µM throughout. In assay [19], this compound had a TGI greater than 100 µM.
On to `Cc1ccc2c(c1)C(=O)/C(=C1/CCc3ccc(C)cc31)C2`, for which the TGI in assay [1], in assay [2], in [3], in assay [4], in [5] and in assay [6] was greater than 100 µM throughout. In addition, the TGI in assay [7], in assay [8], in assay [9], in assay [10], in [11] and in assay [12] was greater than 100 µM each time. In addition, the TGI in assay [13], in [14], in assay [15], in [16], in assay [17] and in assay [18] was greater than 100 µM each time. Further, the TGI in assay [19] is greater than 100 µM.
